B1: Xyl7R2: fragment of Xyl7 consisting of amino acids 19-267 of SEQ ID NO:2 (protein)
chain: AQGPTWTTSTIQAYNGYDYELWNQNNAGTVSMKLTGDNGSGASAVGGTFTATWSNTQNVLFRSGKKWGSSSNQNHTQIGNMSINFAATWSSTDNVKMLGVYGWAYFTSANVPTKQENGTNASFSNQIEYYIIQDRGSYNPASGGTNAKKYGSATIDGIAYDFYVCDRINQPMLTGNGNFKQFFSVPQSASAHRTSGTISVSQHFNKWHELGMKMDGPLYEVAMKVESYTGSGSSNGSATVTKNLLTIGG
modifications: Intestinal tract metagenome of termite
B2: Xyl7R3: fragment of Xyl7 consisting of amino acids 19-272 of SEQ ID NO:2 (protein)
chain: AQGPTWTTSTIQAYNGYDYELWNQNNAGTVSMKLTGDNGSGASAVGGTFTATWSNTQNVLFRSGKKWGSSSNQNHTQIGNMSINFAATWSSTDNVKMLGVYGWAYFTSANVPTKQENGTNASFSNQIEYYIIQDRGSYNPASGGTNAKKYGSATIDGIAYDFYVCDRINQPMLTGNGNFKQFFSVPQSASAHRTSGTISVSQHFNKWHELGMKMDGPLYEVAMKVESYTGSGSSNGSATVTKNLLTIGGTTPTP
modifications: Intestinal tract metagenome of termite

Experiments:
[1] = tested on: Xyl7; test: Effect of different chemical agents and metal ions on the enzymatic activity of Xyl7; format: biochemical, microorganisms in termite gut; details: for Relative Activity (%) of Xyl7: Metal Ion or Chemical Agent 10 mM, enzyme without agent = 100%; for action on Xyl7 (in words) / increase for the activity of the enzyme: 10 mmol/L
Experimental: (§1) In a 100 μl reaction system, birch xylan was added to a final concentration of 1% (w/w), and Na2HPO4/NaH2PO4 buffer (pH7.0) was added to a final concentration of 100 mM. A suitable amount of enzyme solution diluted by the abovementioned buffer was added to the reaction system for reaction at 50[…] for 10 minutes. 100 μl DNS were added to stop the reaction. For the control, 100 μl DNS were firstly added to the above reaction system before adding the enzyme solution. The reaction mixtures were subjected to a boiled water bath for 5 minutes to develop color. Absorbance value at 540 nm was detected by a microplate reader. After subtracting the absorbance value of the control from that of the sample, the enzymatic activity unit (U) was calculated based on the standard curve.
Various compounds were added into the reaction system to a final concentration of 10 mmol/L. Enzymatic activity was tested according to the above standard enzymatic activity detection steps. The specific activity value of the enzyme without treated by any chemical agent or metal ion was used as a reference value and its relative activity was defined as 100%.

[2] = Standard enzymatic activity detection (DNS method) on birch xylan; format: biochemical; details: standard steps: 1% birch xylan, pH7.0, 50, 10 minutes
Experimental: Enzymatic activity of the endo-1,4-β-xylanase was tested by a DNS method as follows:
10 g NaOH were weighed and dissolved in about 400 ml ddH2O. 10 g dinitrosalicylic acid, 2 g phenol, 0.5 g anhydrous sodium sulfite and 200 g potassium sodium tartrate tetrahydrate were weighed and dissolved in about 300 ml ddH2O. The two solutions were mixed, diluted to 1 liter and preserved in dark.
100 μl DNS were added into each of the above standard samples. The mixtures were subjected to boiled water bath for 5 minutes for developing color. Absorbance value at 540 nm was detected by a microplate reader. Standard sample 1 was a blank control. The absorbance value of the blank control was subtracted from that of each sample and then the standard curve was plotted.
as §1
Definition of enzymatic activity unit (U): 1U refers to the amount of enzyme required for catalytically hydrolyzing xylan to produce 1 μmol xylose.
Definition of specific activity unit: enzymatic activity of 1 mg protein (U/mg).
Various substrates with a final concentration of 2% (w/w) were treated by a suitable amount of enzymes at pH7.0 and 50[…] for 10 minutes. Enzymatic activity was tested according to the above standard enzymatic activity detection steps. […] No detectable enzymatic activity was found for the other test substrates. […]

[3] = Detection on the optimum temperature; format: biochemical; details: compared with Xyl7
Experimental: as §1
Enzymatic activity was detected according the above standard enzymatic activity detection steps at pH 7.0 and a temperature in the range of 25-80° C. The optimum temperature of Xyl7 was in the range of 50-55° C., with an activity at 50[…] slightly higher than that at 55[…]. Thus, the specific activity value of the enzyme at 50[…] was used as a reference value and its relative activity was defined as 100%. The relative activity of the enzyme at each temperature was a ratio between the specific activity value of the enzyme at each temperature and the reference value.

Molecule | Relative Activity (%) of Xyl7 [1] [%] | action on Xyl7 (in words) [1] | further results
[Al+3] [Al^3+] | 77.68 ± 2.32 | – | –
[Ba+2] [Ba^2+] | 90.71 ± 1.94 | – | –
[Ca+2] [Ca^2+] | 90.1 ± 12.82 | – | –
[Co+2] [Co^2+] | 109.14 ± 3.45 | could activate | –
[Cu+2] [Cu^2+] | 108.69 ± 2.99 | could activate | –
O=C(O)CN(CCN(CC(=O)O)CC(=O)O)CC(=O)O [EDTA] | 88.65 ± 1.62 | obviously inhibited | –
[Fe+2] [Fe^2+] | 25.33 ± 0.46 | obviously inhibited | Relative Activity (%) of Xyl7 ([1]; listed as Fe^3+): 90.41 ± 3.36%
[K+] [K^+] | 125.6 ± 11.98 | could activate | increase for the activity of the enzyme [1]: about 20%
[Mg+2] [Mg^2+] | 101.53 ± 3.02 | no obvious action | –
[Mn+2] [Mn^2+] | 125.73 ± 7.8 | could activate | increase for the activity of the enzyme [1]: about 20%
[Ni+2] [Ni^2+] | 44.25 ± 4.98 | obviously inhibited | –
[Zn+2] [Zn^2+] | 64.88 ± 1.36 | obviously inhibited | –
B1 | – | – | specific activity by the standard enzymatic activity detection steps of Example 3 [2]: 8560 U/mg
B2 | – | – | specific activity by the standard enzymatic activity detection steps of Example 3 [2]: 8775 U/mg; optimum temperature and tolerance on temperature [3]: almost identical to those of Xyl7

Reference: US20160201045A1, “Endo-xylanase and Coding Gene and Use Thereof” (SHANGHAI INSTITUTES FOR BIOLOGICAL SCIENCES CHINESE ACADEMY …, priority 2013, published 2016)
